Test results from patent publication US20180071317A1, “USE OF AGENTS THAT ALTER THE PERITUMORAL ENVIRONMENT FOR THE TREATMENT OF CANCER” (SERVICIO ANDALUZ DE SALUD, priority 2011, published 2018).

Columns and labels:
[1] = system: human primary macrophages (PHM); assay: Marker expression (immunohistochemistry) in human primary macrophages with SP alone or with NK1 antagonists; assay type: cell-based; conditions: SP 1 μM; 48 h
Experimental: In this sense the next step was to analyze the effect exerted by the treatment with non-peptide NK1 antagonists in human primary macrophages (PHM) obtained and purified from pleural effusion samples obtained from men with chronic age range between 45 and 55 years. Briefly, the pleural fluid from chronic (rich in macrophages) was centrifuged.
After 48 hours of culture, cells were harvested and cellular paraffin blocks were constructed for immunohistochemical analysis (see Example 1). To analyze the expression of markers EGF, MMP-9, VEGF and IL-8 antibodies were used as follows: EGF (rabbit monoclonal antibody, anti-EGF; 07-1432. Merck-Millipore), MMP-9 (polyclonal rabbit anti-MMP-9: SAB4501896, Sigma-Aldrich), VEGF (mouse monoclonal anti-VEGF, GF25-100UG, Merck-Millipore) and TNF-α (mouse monoclonal anti-TNF-α, number MAB 1021 catalogue, obtained from Merck-Millipore). All of these antibodies were used at a concentration of 1/1000. System for labelling with a secondary antibody specific for the primary antibodies obtained from rabbit or mouse was used, as was necessary in each case, both the Envision (Dako). All experiments were carried out sixfold.

[2] = system: macrophages in co-culture with cells isolated from primary human tumors; assay: Marker expression (IHC) in macrophages co-cultured with primary human tumor cells (colon, breast, ovarian, lung carcinoma, melanoma); assay type: cell-based; conditions: SP 1 μM;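 note: macrophages came from pleural or peritoneal washings of the patient who also supplied the tumor cells, and both were co-cultured on fresh blood plasma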
Experimental: To check that the interaction of tumor cells obtained directly from primary human immune cell/inflammatory (macrophages) cells, obtained from the patient stimulate secretion of substances by these macrophages recognized as important in survival of both cell types and in the progression of tumor cells, co-cultures were performed on fresh blood plasma, immune cell/inflammatory (macrophages) with tumor cells derived from primary tumors. All obtained from the same patient, to build an experimental model similar to human physiology.
Macrophages were obtained from washing or pleural or peritoneal from the same patient from which the primary tumor cells were obtained in each case.

[3] = system: fibroblasts (PHF) co-cultured with tumor cells of human breast carcinoma (MCF-7); assay: Marker expression (IHC) in PHF co-cultured with MCF-7 tumor cells; assay type: cell-based; conditions: co-culture with MCF-7; SP 1 μM; 48 h;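 note: value is the percentage of fibroblasts positive for each marker, with fibroblasts cultured alone as reference, grown in fresh plasma from a healthy donor, six replicates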
Experimental: (§1) All cultures were maintained 48 hours, following which the same cells were included in paraffin blocks for subsequent analysis of the expression of different markers by immunohistochemistry (see Example 1). […] All experiments were carried out sixfold. Analyzed markers in fibroblast cells (stromal cells) were: TGF-α, TGF-β1, TGF-β2, TGF-β3, SPARC, MMP-3, MMP-7, MMP-9, MMP-11, MMP-13 and MMP-14.

[4] = system: fibroblasts (PHF) co-cultured with tumor cells of human Edwing sarcoma (MHH-ES-1); assay: Marker expression (IHC) in PHF co-cultured with MHH-ES-1 tumor cells; assay type: cell-based; conditions: PHF co-cultured with MHH-ES-1 + SP
Experimental: as §1

[5] = system: fibroblasts (PHF) co-cultured with tumor cells of human Burkitt lymphoma (CA-46); assay: Marker expression (IHC) in PHF co-cultured with CA-46 tumor cells; assay type: cell-based; conditions: PHF co-cultured with CA-46 + SP;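 note: percentage of PHF fibroblasts positive for each marker, cultures grown in fresh human plasma from a healthy donor, six replicates, compared with fibroblasts cultured alone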
Experimental: (§2) All cultures were maintained 48 hours, following which the same cells were included in paraffin blocks for subsequent analysis of the expression of different markers by immunohistochemistry (see Example 1). The primary antibodies used to perform immunohistochemical assays and their concentration are detailed in Example 2. All experiments were carried out sixfold. Analyzed markers in fibroblast cells (stromal cells) were: TGF-α, TGF-β1, TGF-β2, TGF-β3, SPARC, MMP-3, MMP-7, MMP-9, MMP-11, MMP-13 and MMP-14.

[6] = system: fibroblasts (PHF) co-cultured with human fibrosarcoma tumor cells (HT-1080); assay: Marker expression (IHC) in PHF co-cultured with HT-1080 tumor cells; assay type: cell-based; conditions: co-culture with HT-1080; SP 1 μM; 48 h;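 note: cultures grown in fresh human plasma from a healthy donor, six replicates, value is percent of fibroblasts positive for the marker, compared with fibroblasts cultured without tumor cells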
Experimental: as §1

[7] = system: fibroblasts (PHF) co-cultured with tumor cells of human cervix carcinoma (KB); assay: Marker expression (IHC) in PHF co-cultured with KB tumor cells; assay type: cell-based; conditions: co-culture with KB; SP 1 μM; 48 h;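 note: percentage of PHF fibroblasts showing expression of each marker, cultured in fresh blood plasma from a healthy human donor, six replicates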
Experimental: as §1

[8] = system: fibroblasts (PHF) co-cultured with tumor cells of human colon adenocarcinoma (SW-403); assay: Marker expression (IHC) in PHF co-cultured with SW-403 tumor cells; assay type: cell-based; conditions: co-culture with SW-403; SP 1 μM; 48 h
Experimental: as §2

[9] = system: mononuclear cells; assay: Marker expression (immunohistochemistry) in mononuclear blood cells with SP alone or with NK1 antagonists; assay type: cell-based, human; conditions: SP 1 μM; 48 h
Text: Briefly, heparinized blood from healthy donors was centrifuged so as to separate the various components thereof. Red blood cells remained at the bottom of the tube. Above them was a small white layer composed of the white blood cells and above, on top of the tube, the blood plasma. The layer of white cells was distributed in a culture plate of 24 wells by adding in each the same concentration of blood plasma from the same donor, supplemented with 1% antibiotic-antimycotic (Invitrogen). In each well, approximately 1000 cells (PHF) skin from the dermis were further added, obtained as previously described in Example 2. […] After 48 hours of incubation, cells were collected and embedded in paraffin for expression analysis by immunohistochemical techniques (as described in Example 1).
The expression of TGF molecular markers (anti-TGF 2, SAB4502956) and NF-kB (anti-NF-kB, SAB4501992) using specific antibodies against them were analyzed. All antibodies used were rabbit polyclonal antibodies obtained from Sigma Aldrich and were used at a concentration of 1/1000. All experiments were carried out sixfold.

[10] = co-culture with cells isolated from breast carcinoma
[11] = co-culture with cells isolated from colon carcinoma
[12] = co-culture with cells isolated from lung carcinoma
[13] = co-culture with cells isolated from melanoma
[14] = co-culture with cells isolated from ovarian carcinoma

CSCC[C@H](NC(=O)[C@H](CC(C)C)NC(=O)CNC(=O)[C@H](Cc1ccccc1)NC(=O)[C@H](Cc1ccccc1)NC(=O)[C@H](CCC(N)=O)NC(=O)[C@H](CCC(N)=O)NC(=O)[C@@H]1CCCN1C(=O)[C@H](CCCCN)NC(=O)[C@@H]1CCCN1C(=O)[C@@H](N)CCCNC(=N)N)C(N)=O [SP]
macrophages expressing EGF [1]: 27.4 ± 1.1% | macrophages expressing MMP-9 [1]: 24.3 ± 1.4% | macrophages expressing VEGF [1]: 29.6 ± 2.1% | Percentage of macrophages which expressed EGF [2, 10]: 41.6 ± 4.2% | Percentage of macrophages which expressed MMP-9 [2, 10]: 39.5 ± 3.2% | Percentage of macrophages which expressed VEGF [2, 10]: 37.4 ± 4.2% | Percentage of macrophages which expressed EGF [2, 11]: 41.4 ± 4.2% | Percentage of macrophages which expressed MMP-9 [2, 11]: 39.5 ± 3.5% | Percentage of macrophages which expressed VEGF [2, 11]: 38.5 ± 2.9% | Percentage of macrophages which expressed EGF [2, 12]: 38.4 ± 2.9% | Percentage of macrophages which expressed MMP-9 [2, 12]: 39.4 ± 3.7% | Percentage of macrophages which expressed VEGF [2, 12]: 37.4 ± 4.2% | Percentage of macrophages which expressed EGF [2, 13]: 41.9 ± 3.2% | Percentage of macrophages which expressed MMP-9 [2, 13]: 39.5 ± 5.3% | Percentage of macrophages which expressed VEGF [2, 13]: 35.4 ± 4.4% | Percentage of macrophages which expressed EGF [2, 14]: 41.5 ± 4.2% | Percentage of macrophages which expressed MMP-9 [2, 14]: 39.5 ± 3.2% | Percentage of macrophages which expressed VEGF [2, 14]: 37.4 ± 4% | PHF cells expressing MMP-3 [3]: 44.5 ± 1.8% | PHF cells expressing MMP-7 [3]: 57.1 ± 2.7% | PHF cells expressing MMP-9 [3]: 55.3 ± 1.7% | PHF cells expressing MMP-11 [3]: 25.4 ± 2.7% | PHF cells expressing MMP-13 [3]: 46 ± 3.6% | PHF cells expressing MMP-14 [3]: 48.2 ± 3.5% | PHF cells expressing SPARC [3]: 49 ± 1.5% | PHF cells expressing TGF-α [3]: 42.6 ± 1.1% | PHF cells expressing TGF-β1 [3]: 43.2 ± 1% | PHF cells expressing TGF-β2 [3]: 42.6 ± 2.1% | PHF cells expressing TGF-β3 [3]: 46 ± 1.7% | cells expressing MMP-3 [4]: 43.5 ± 3.7% | cells expressing MMP-7 [4]: 56.7 ± 4.8% | cells expressing MMP-9 [4]: 54.4 ± 2.4% | cells expressing MMP-11 [4]: 28.4 ± 3.8% | cells expressing MMP-13 [4]: 46.6 ± 3.6% | cells expressing MMP-14 [4]: 49.6 ± 4.2% | cells expressing SPARC [4]: 46.5 ± 3.2% | cells expressing TGF-α [4]: 36.4 ± 3.1% | cells expressing TGF-β1 [4]: 35.5 ± 2.1% | cells expressing TGF-β2 [4]: 42.6 ± 5.1% | cells expressing TGF-β3 [4]: 42.4 ± 1.6% | cells expressing MMP-3 [5]: 63.4 ± 4.3% | cells expressing MMP-7 [5]: 66.1 ± 3.8% | cells expressing MMP-9 [5]: 72.3 ± 4.4% | cells expressing MMP-11 [5]: 67.4 ± 5.8% | cells expressing MMP-13 [5]: 55 ± 6.4% | cells expressing MMP-14 [5]: 59.1 ± 6.3% | cells expressing SPARC [5]: 77 ± 4.2% | cells expressing TGF-α [5]: 61.4 ± 5.1% | cells expressing TGF-β1 [5]: 63.4 ± 4.1% | cells expressing TGF-β2 [5]: 60.5 ± 5.1% | cells expressing TGF-β3 [5]: 71 ± 4.56% | PHF cells expressing MMP-3 [6]: 43.4 ± 2.8% | PHF cells expressing MMP-7 [6]: 57.1 ± 3.8% | PHF cells expressing MMP-9 [6]: 52.3 ± 2.4% | PHF cells expressing MMP-11 [6]: 27.5 ± 3.8% | PHF cells expressing MMP-13 [6]: 45.4 ± 3.6% | PHF cells expressing MMP-14 [6]: 49.3 ± 3.5% | PHF cells expressing SPARC [6]: 51.2 ± 3.3% | PHF cells expressing TGF-α [6]: 42.5 ± 3.1% | PHF cells expressing TGF-β1 [6]: 33.6 ± 3.1% | PHF cells expressing TGF-β2 [6]: 40.7 ± 2.1% | PHF cells expressing TGF-β3 [6]: 51 ± 1.6% | PHF cells expressing MMP-3 [7]: 42.6 ± 1.8% | PHF cells expressing MMP-7 [7]: 57.5 ± 5.8% | PHF cells expressing MMP-9 [7]: 57.3 ± 6.4% | PHF cells expressing MMP-11 [7]: 36.4 ± 6.8% | PHF cells expressing MMP-13 [7]: 45.4 ± 3.7% | PHF cells expressing MMP-14 [7]: 51.6 ± 3.5% | PHF cells expressing SPARC [7]: 46.9 ± 1.6% | PHF cells expressing TGF-α [7]: 33.4 ± 1.1% | PHF cells expressing TGF-β1 [7]: 34.5 ± 1.1% | PHF cells expressing TGF-β2 [7]: 45.6 ± 1.1% | PHF cells expressing TGF-β3 [7]: 44.5 ± 3.1% | PHF cells expressing MMP-3 [8]: 46.4 ± 1.9% | PHF cells expressing MMP-7 [8]: 53.1 ± 2.2% | PHF cells expressing MMP-9 [8]: 55.7 ± 1.6% | PHF cells expressing MMP-11 [8]: 26.4 ± 2.6% | PHF cells expressing MMP-13 [8]: 46.5 ± 3.7% | PHF cells expressing MMP-14 [8]: 51.3 ± 3.6% | PHF cells expressing SPARC [8]: 48 ± 1.6% | PHF cells expressing TGF-α [8]: 42.5 ± 1% | PHF cells expressing TGF-β1 [8]: 34.3 ± 1.2% | PHF cells expressing TGF-β2 [8]: 42.5 ± 1.5% | PHF cells expressing TGF-β3 [8]: 44 ± 1.9% | mononuclear cells expressing NF-kB [9]: 25.7 ± 1.4% | mononuclear cells expressing TGF-β [9]: 16.4 ± 1.2%
